Patent US11510931B2, “Compositions and methods for treating ophthalmic conditions” (MEDICON PHARMACEUTICALS, INC., priority 2016, dated 2022)
Like-named read-outs stand apart in the source and are kept apart here.

Experiments:
VEGF = VEGF immunohistochemistry in inferior lacrimal gland of rabbits with DED; type: in vivo, rabbit; settings: PS 3.5% eye drops three times per day, 1 week, vs vehicle
Procedure: Rabbits with ConA-induced dry eye disease (n=8 eyes/group) were treated with PS 3.5% eye drops three times per day or vehicle for 1 week. […] Immunohistochemistry for VEGF was performed on tissue sections and VEGF positive vessels were counted. PS reduced the number of VEGF positive cells by 73% bringing it to nearly normal values (the level in naïve rabbits)

[1] = Ocular biodistribution of PS after topical eye drops in New Zealand white rabbits (HPLC); type: in vivo, rabbit
Procedure: Results: The above PS formulation was administered topically as eye drops to the eyes of New Zealand white rabbits. The levels of PS in ocular tissues 1 h and 3 h later were determined by HPLC. The Table below summarizes the findings:
Results: The above PS formulation was administered topically as eye drops to the eyes of New Zealand white rabbits. The levels of PS in ocular tissues at 2 h later were determined by HPLC. The table below summarizes the findings.
Results: PS in this formulation was administered topically to the eyes of New Zealand white rabbits and its biodistribution was determined as above. The Table below summarizes the findings.
Results: PS in this formulation was administered topically as eye drops to the eyes of New Zealand white rabbits. The biodistribution of PS in ocular tissues at 3 h and 6 h was determined by HPLC. The Table below summarizes the findings.
Biodistribution of PS after topical administration: PS formulated in nanoparticles as above was administered topically as eye drops to New Zealand white rabbits. The biodistribution of PS in ocular tissues at the indicated time points post administration was determined by HPLC. The Table below summarizes the findings.
Biodistribution of PS after topical administration: PS in the formulations was administered topically as eye drops to the eyes of New Zealand white rabbits. The levels of PS in ocular tissues at 0.5 h, 1 h and 3 h were determined by HPLC. The Table below summarizes the findings.
To assess the contribution of the foregoing formulations to the PK/biodistribution of PS in the ocular tissues, a solution of PS in pure propylene glycol (PG) was studied. PG is well tolerated by the eye. A 3.5% PS solution (in PG) as eye drops was administered topically to the eyes of New Zealand white rabbits and its 1-hour biodistribution was determined by HPLC. The Table summarizes the findings.

[2] = 0.5 h, topical, 0.4% gellan gum in-situ gel, 2.4-3% PS
[3] = 1 h, topical eye drops, 3.5% PS/16% Vitamin E TPGS/mannitol/boric acid
[4] = 1 h, topical, 0.4% gellan gum in-situ gel, 2.4-3% PS
[5] = 1 h, topical, sodium alginate/Tween 80 in-situ gel, 3% PS
[6] = 2 h, topical, 0.5% gellan gum in-situ gel, 2.4~3% PS
[7] = 3 h, topical eye drops, 3.5% PS/16% Vitamin E TPGS/mannitol/boric acid
[8] = 3 h, topical, 0.4% gellan gum in-situ gel, 2.4-3% PS
[9] = 3 h, topical, Poloxamer 407 in-situ gel, 5.4% PS
[10] = 3 h, topical, sodium alginate/Tween 80 in-situ gel, 3% PS
[11] = 5 h, topical, 0.4% gellan gum in-situ gel, 2.4-3% PS
[12] = 5 h, topical, sodium alginate/Tween 80 in-situ gel, 3% PS
[13] = 8 h, topical, 0.4% gellan gum in-situ gel, 2.4-3% PS

## CCOP(=O)(OCC)OCCCCOC(=O)CC1=C(C)/C(=C/c2ccc([S+](C)[O-])cc2)c2ccc(F)cc21 (stereo not drawn) [PS, phosphosulindac]
VEGF
  reduction of the number of VEGF positive cells: 73%
[1]; [2]
  PS in Aqueous humor: 0.6 µM
  PS in Conjunctiva: 37.7 µM
  PS in Cornea: 24.3 µM
[1]; [3]
  PS in Aqueous humor: 2.3 µM
  PS in Choroid: 3.2 µM
  PS in Conjunctiva: 9.3 µM
  PS in Cornea: 6.9 µM
  PS in Iris: 0.7 µM
  PS in Lacrimal gland: 0.1 µM
  PS in Lens: 1.8 µM
  PS in Retina: 2.7 µM
  PS in Sclera: 2.3 µM
  PS in Vitreous body: 3.6 µM
[1]; [4]
  PS in Aqueous humor: 0.4 µM
  PS in Conjunctiva: 20.8 µM
  PS in Cornea: 50.8 µM
[1]; [5]
  PS in Aqueous humor: 0.4 µM
  PS in Conjunctiva: 4.9 µM
  PS in Cornea: 17.8 µM
[1]; [6]
  PS in Aqueous humor: 1.2 µM
  PS in Conjunctiva: 24.1 µM
  PS in Cornea: 72.0 µM
[1]; [7]
  PS in Aqueous humor: 0.1 µM
  PS in Choroid: 0.2 µM
  PS in Conjunctiva: 0.5 µM
  PS in Cornea: 0.8 µM
  PS in Iris: 0.9 µM
  PS in Lacrimal gland: 0.5 µM
  PS in Lens: 0.1 µM
  PS in Retina: 0.2 µM
  PS in Sclera: 0.2 µM
[1]; [8]
  PS in Conjunctiva: 0.7 µM
  PS in Cornea: 1.5 µM
[1]; [9]
  PS in Choroid: 0.9 µM
  PS in Cornea: 45.1 µM
[1]; [10]
  PS in Aqueous humor: 0.3 µM
  PS in Conjunctiva: 2.1 µM
  PS in Cornea: 5.0 µM
[1]; [11]
  PS in Conjunctiva: 1.1 µM
  PS in Cornea: 1.1 µM
[1]; [12]
  PS in Conjunctiva: 2.3 µM
  PS in Cornea: 1.0 µM
[1]; [13]
  PS in Conjunctiva: 0.7 µM
  PS in Cornea: 1.6 µM
[1]; 8 h, topical, sodium alginate/Tween 80 in-situ gel, 3% PS
  PS in Conjunctiva: 1.3 µM
[1]; New Zealand white, rabbit, aqueous humor, topical, 3 % PS, 5 h, topical, sodium alginate/Tween 80 in-situ gel, 3% PS, read-out: PS in Aqueous humor
  concentration at 5 h: 0 nM
[1]; New Zealand white, rabbit, aqueous humor, topical, 3 % PS, 8 h, topical, sodium alginate/Tween 80 in-situ gel, 3% PS, read-out: PS in Aqueous humor
  concentration at 8 h: 0 nM
[1]; New Zealand white, rabbit, aqueous humor, topical, 3.5 % PS solution (eye drops), 1 h, topical eye drops, 3.5% PS solution in propylene glycol, read-out: PS in Aqueous humor
  concentration at 1 h: 700 nM
[1]; New Zealand white, rabbit, aqueous humor, topical, 5.4 % PS, 3 h, topical, Poloxamer 407 in-situ gel, 5.4% PS, read-out: PS in Aqueous humor
  concentration at 3 h: 300 nM
[1]; New Zealand white, rabbit, aqueous humor, topical, 5.4 % PS, 6 h, topical, Poloxamer 407 in-situ gel, 5.4% PS, read-out: PS in Aqueous humor
  concentration at 6 h: 300 nM
[1]; New Zealand white, rabbit, aqueous humor, topical, 3 h, topical, 0.4% gellan gum in-situ gel, 2.4-3% PS, read-out: PS in Aqueous humor
  concentration at 3 h: 0 nM
[1]; New Zealand white, rabbit, aqueous humor, topical, 5 h, topical, 0.4% gellan gum in-situ gel, 2.4-3% PS, read-out: PS in Aqueous humor
  concentration at 5 h: 0 nM
[1]; New Zealand white, rabbit, aqueous humor, topical, 8 h, topical, 0.4% gellan gum in-situ gel, 2.4-3% PS, read-out: PS in Aqueous humor
  concentration at 8 h: 0 nM
